What was measured:
histamine H3 receptor = histamine H3 receptor (Homo sapiens, UniProt Q9Y5N1); assay: FLPPR assay, antagonistic activity on histamine H3 receptor; type: cell-based; details: for inhibition at 0.005 µM: read-out: % Inh-AVERAGE @ 5 nM; for inhibition at 0.05 µM: read-out: % Inh-AVERAGE @ 50 nM
Description: The FLPPR assay (NIH Assay Guidance Manual: HTS Assay Validation-Section 4.3. Analysis (Potency), htpps://www.ncbi.nlm.nih.gov/books/NBK83783) was performed using SUVN-G3031 as a positive control, and 21 target compounds were tested for the antagonistic activity target to histamine H3 receptor.

hERG channel = hERG channel (Homo sapiens, UniProt Q12809); assay: in vitro; details: Average inhibition rate (%) on hERG channel
Sequence of hERG channel (Q12809 whole entry): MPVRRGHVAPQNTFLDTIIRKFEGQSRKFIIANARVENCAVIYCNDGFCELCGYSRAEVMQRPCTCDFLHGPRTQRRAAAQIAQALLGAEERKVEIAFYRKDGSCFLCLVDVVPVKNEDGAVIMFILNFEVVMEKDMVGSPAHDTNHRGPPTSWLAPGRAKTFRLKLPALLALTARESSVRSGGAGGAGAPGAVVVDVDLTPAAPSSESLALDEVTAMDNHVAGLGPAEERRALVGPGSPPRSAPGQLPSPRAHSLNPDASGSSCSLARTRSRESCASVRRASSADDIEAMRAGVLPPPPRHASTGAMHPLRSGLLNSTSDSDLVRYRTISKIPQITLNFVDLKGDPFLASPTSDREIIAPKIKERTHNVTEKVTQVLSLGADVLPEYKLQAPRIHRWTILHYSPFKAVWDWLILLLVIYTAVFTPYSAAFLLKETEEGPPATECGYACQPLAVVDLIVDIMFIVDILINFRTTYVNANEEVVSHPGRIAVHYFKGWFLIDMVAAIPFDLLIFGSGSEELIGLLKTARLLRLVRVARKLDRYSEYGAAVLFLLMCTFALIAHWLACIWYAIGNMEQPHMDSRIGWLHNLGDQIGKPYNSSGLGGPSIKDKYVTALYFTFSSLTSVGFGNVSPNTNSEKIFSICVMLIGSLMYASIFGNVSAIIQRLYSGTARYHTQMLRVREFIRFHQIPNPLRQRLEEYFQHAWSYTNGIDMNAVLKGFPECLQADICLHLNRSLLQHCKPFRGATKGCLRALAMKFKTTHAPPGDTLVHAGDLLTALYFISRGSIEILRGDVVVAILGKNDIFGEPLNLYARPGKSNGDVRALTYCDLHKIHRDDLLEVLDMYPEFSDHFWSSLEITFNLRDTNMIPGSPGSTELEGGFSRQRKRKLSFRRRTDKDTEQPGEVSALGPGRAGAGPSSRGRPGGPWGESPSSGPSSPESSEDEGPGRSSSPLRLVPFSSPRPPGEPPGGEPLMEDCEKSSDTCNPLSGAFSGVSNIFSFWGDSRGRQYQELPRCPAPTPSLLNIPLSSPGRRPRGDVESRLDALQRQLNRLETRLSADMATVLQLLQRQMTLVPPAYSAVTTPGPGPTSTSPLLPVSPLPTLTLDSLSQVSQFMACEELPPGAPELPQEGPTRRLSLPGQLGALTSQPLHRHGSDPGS
Text: In cardiomyocytes, inhibition of the delayed rectifier potassium current (IKr) channel protein encoded by the human Ether-a-go-go Related Gene (hERG) is the most important mechanism by which drugs lead to prolongation of the QT interval. hERG is characterized by a specific molecular structure, which allows it to be inhibited by different structures, leading to severe arrhythmias. Statistically, 25-40% of lead compounds show varying degrees of hERG-related toxicity. Therefore, early evaluation of the effects of compounds on hERG is crucial in the drug development process.
The inhibition rate of compounds on hERG channels was examined by manual membrane clamp technique on HEK293 cell line which is stably expressing hERG ion channels.

CCI model rats = assay: Analgesic effect, chronic constriction injury (CCI) model, mechanical withdrawal threshold; type: in vivo, SD rats
Text: Exposing the sciatic nerve on male SD rats' (180-200 g) right hind leg, in the anterior segment where the sciatic nerve is about to bifurcate, use sterile chromic gut thread (No. 4, 0.15 mm in diameter) to ligate 4 loops loosely, with each loop 1-2 mm apart, and suture the muscle and skin to establish the chronic constriction injury (CCI) model. In the sham-operated group, only the sciatic nerve was exposed without ligation, and the muscle and skin were sutured. The mechanical withdrawal threshold was detected by electronic analgesia meter (IITC-2391) on the 7th day for 2 consecutive days.
The CCI model rats with stabilized mechanical withdrawal thresholds were randomly divided into five groups, named model group (model), pregabalin group (Pre, 30 mg/kg), BIOS-B-12 compound group (3 mg/kg), BIOS-B-12 compound group (1 mg/kg), and BIOS-B-12 compound group (0.3 mg/kg), and were administered at 1 mL/100 g by gavage, and the same column of saline was gavaged in Sham an model group. The basic value was determined before drug administration, and the mechanical withdrawal thresholds were detected at 0.5 h, 1 h, 2 h, 4 h, 6 h, and 24 h after a single drug administration, and the p value was calculated by ANOVA with T-test.
The CCI model rats with stabilized mechanical withdrawal thresholds were randomly divided into three groups, named model group (model), pregabalin group (Pre, 30 mg/kg), and BIOS-B-14 compound group (1 mg/kg), and were administered at 1 mL/100 g by gavage, and the same column of saline was gavaged in Sham and model group. The basic value was determined before drug administration, and the mechanical withdrawal thresholds were detected at 0.5 h, 1 h, 2 h, 4 h, and 6 h after a single drug administration, and the p value was calculated by ANOVA with T-test.

[1] = test system: histamine-induced scratching; assay: Antipruritic ability, histamine-induced scratching in mice; type: in vivo, C57BL/6J mice; details: for number of histamine-induced scratched in mice: 10 mg/kg; for antipruritic effect compared with positive control dexamethasone: 10 mg/kg vs dexamethasone 3 mg/kg; for Inhibition Rate (%) of number of scratches: BIOS-B-12 10 mg/kg 4 h, BIOS-B-18 10 mg/kg 1 h, Dex 3 mg/kg 1 h before histamine 500 μg/50 μL s.c., observed 30 min, (Model-Compound)/Model×100%
Description: The C57BL/6J male mice, with 6-8 weeks old, were randomly divided into model group (Model), BIOS-B-12 compound group (10 mg/kg), BIOS-B-18 compound group (10 mg/kg) and dexamethasone group (Dex, 3 mg/kg), with 7 animals in each group. The mice were injected subcutaneously with 500 μg/50 μL histamine at the back of the neck after the administration of dexamethasone for 1 h, BIOS-B-12 for 4 h, and BIOS-B-18 for 1 h, respectively, and immediately observed for 30 min. The number of scratched was recorded and the inhibition rate was calculated as (Model-Compound)/Model×100%.

[2] = BIOS-B-12 3, 1, 0.3 mg/kg vs pregabalin 30 mg/kg, FIG. 1 study

Sequence of histamine H3 receptor (Q9Y5N1 whole entry, species assumed): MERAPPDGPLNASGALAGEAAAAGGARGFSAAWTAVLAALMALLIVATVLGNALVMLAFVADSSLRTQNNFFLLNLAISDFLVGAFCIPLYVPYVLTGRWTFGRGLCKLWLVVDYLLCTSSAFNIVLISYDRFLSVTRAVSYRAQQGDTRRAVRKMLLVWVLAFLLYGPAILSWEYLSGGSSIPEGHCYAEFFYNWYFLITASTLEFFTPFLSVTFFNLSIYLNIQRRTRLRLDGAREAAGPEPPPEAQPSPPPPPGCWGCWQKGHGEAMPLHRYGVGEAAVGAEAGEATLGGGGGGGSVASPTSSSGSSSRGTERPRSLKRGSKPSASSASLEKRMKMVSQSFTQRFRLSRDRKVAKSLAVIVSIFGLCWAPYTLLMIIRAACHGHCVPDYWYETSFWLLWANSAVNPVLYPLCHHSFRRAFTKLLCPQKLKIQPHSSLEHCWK

Row | SMILES | inhibition at 0.005 µM (histamine H3 receptor) [%] | inhibition at 0.05 µM (histamine H3 receptor) [%] | inhibition at 10 µM (hERG channel) [%] | mechanical withdrawal thresholds vs model group (CCI model rats; 0.3 mg/kg single dose by gavage, 1 h to 2 h after administration, P<0.05, FIG. 1) | mechanical withdrawal thresholds vs model group (CCI model rats; 1 mg/kg single dose by gavage, 0.5 h to 6 h after administration, P<0.01, FIG. 1) | mechanical withdrawal thresholds vs model group (CCI model rats; 3 mg/kg single dose by gavage, 0.5 h to 24 h after administration, P<0.01, FIG. 1) | level of analgesia compared with pregabalin (CCI model rats; [2]) | period of analgesia time compared with pregabalin (CCI model rats; [2]) | mechanical withdrawal thresholds in the CCI model rats, dose dependence (CCI model rats; single dose at 3, 1 and 0.3 mg/kg, FIG. 1) | number of histamine-induced scratched in mice [1] | antipruritic effect compared with positive control dexamethasone [1] | Inhibition Rate (%) of number of scratches [1] [%]
1 | O=C(CN1CCN(C2CCC2)CC1)Nc1ccc(OC2CC(N3CCCCC3)C2)cc1 (stereo not drawn) [BIOS-B-12, 2-(4-cyclobutylpiperazin-1-yl)-N-(4-(3-(piperidin-1-yl)cyclobutoxy)phenyl)acetamide] | 99.1 | 98.8 | 2.06 | significantly different | significantly different | significantly different | superior to that of pregabalin | longer period of analgesia time | dose-dependently increasing | reduced | more effective than the positive control | 36.6
2 | O=C(NCCN1CCC(F)(F)CC1)Nc1ccc(OC2CC(N3CCCCC3)C2)cc1 (stereo not drawn) [BIOS-B-18, 1-(2-(4,4-difluoropiperidin-1-yl)ethyl)-3-(4-(3-(piperidin-1-yl)cyclobutoxy)phenyl)urea] | 99.7 | 99.9 | -0.65 |  |  |  |  |  |  | reduced | more effective than the positive control | 55.0
